Test results published in US6004957A, “Sulfonamide inhibitors of aspartyl protease” (Vertex Pharmaceuticals, Incorporated, priority 1998, dated 1999).
Where a name gives a salt, the structure may show the parent alone.

tested on: HIVIIIb in CCRM-CEM cells; test: Anti-viral potency in CCRM-CEM cells acutely infected with HIVIIIb (method of Meek et al.), extracellular p24 antigen; format: cell-based, HIV-1; details: Human immunodeficiency virus 1, HIV replication, Table VIII, read-out: IC90 Range
Text: As discussed above, the novel compounds of the present invention are excellent ligands for aspartyl proteases, particularly HIV-1 and HIV-2 proteases. Accordingly, these compounds are capable of targeting and inhibiting late stage events in HIV replication, i.e., the processing of the viral polyproteins by HIV encoded proteases. […] Because aspartyl protease is essential for the production of mature virions, inhibition of that processing effectively blocks the spread of virus by inhibiting the production of infectious virions, particularly from chronically infected cells. […] Other anti-viral assays have confirmed the potency of these compounds.
Compounds of formula I were tested for their antiviral potency in several virological assays. In the first assay, the compounds were added as a solution in dimethylsulfoxide (DMSO) to a test cell culture of CCRM-CEM cells, a strain of CD4^+ human T-cell lymphoma cells, previously acutely infected with HIVIIIb using standard protocols (see Meek, T. D. et al., "Inhibition of HIV-1 protease in infected T-lymphocytes by synthetic peptide analogues", Nature, 343, p. 90 (1990). Preferred compounds are those which are able to inhibit 90% of viral infectivity at a concentration of 1 μM or less. More preferred compounds are those which are able to inhibit 90% of viral infectivity at a concentration of 100 nM or less.
The effect of the compounds on inhibiting the replication of the virus was measured by determining the HIV extracellular p24 antigen concentration using a commercial enzyme immunoassay (obtained from Coulter Corporation, Hialeah, Fla.).

Compound | IC90
CC(C)CN(C[C@@H](O)[C@H](Cc1ccccc1)NC(=O)OCc1cccnc1)S(=O)(=O)c1ccc(F)cc1 [Compound 98, 4-Fluoro-N-((2 syn,3S)-2-hydroxy-4-phenyl-3-(pyridin-3-yl-methoxycarbonylamino)-butyl)-N-isobutyl-benzenesulfonamide] | 101 to 1000 nM
CC(=O)Nc1cc(S(=O)(=O)N(CC(C)C)C[C@@H](O)[C@H](Cc2ccccc2)NC(=O)[C@H](CC(N)=O)NC(=O)c2ccc3ccccc3n2)ccc1F [Compound 16, (S)-N-1-(3-((3-Acetylamino-4-fluoro-benzenesulfonyl)-isobutyl-amino)-(1S,2 syn)-1-benzyl-2-hydroxy-propyl)-2-((quinoline-2-carbonyl)-amino)-succinamide] | 101 to 1000 nM
CC(=O)Nc1ccc(S(=O)(=O)N(CC(C)C)C[C@@H](O)[C@H](Cc2ccccc2)NC(=O)OC(C)(C)C)cc1 [Compound 39] | 1000 to 10000 nM
Nc1ccc(S(=O)(=O)N(CC2CCCC2)C[C@@H](O)[C@H](Cc2ccccc2)NC(=O)O[C@H]2CCOC2)cc1 [Compound 171, 4-Amino-N-cyclopentylmethyl-N-((2 syn,3S)-2-hydroxy-4-phenyl-3-((S)-tetrahydrofuran-3-yloxycarbonylamino)-butyl)-banzenesulfonamide] | < 100 nM
CC(C)CN(C[C@@H](O)[C@H](Cc1ccccc1)NC(=O)O[C@H]1CCOC1)S(=O)(=O)c1ccc(-c2ccccn2)s1 [Compound 51] | 1000 to 10000 nM
CC(=O)Nc1ccc(S(=O)(=O)N(CC(C)C)C[C@@H](O)[C@H](Cc2ccccc2)NC(=O)O[C@H]2CCOC2)cc1 [Compound 48, N-(4-(((2 syn,3S)-2-Hydroxy-4-phenyl-3-((S)-tetrahydrofuran-3-yloxycarbonylamino)-butyl)-isobutyl-sulfamoyl)-phenyl)-acetamide] | 101 to 1000 nM
C=CCOC(=O)N[C@@H](Cc1ccccc1)[C@H](O)CN(CC(C)C)S(=O)(=O)c1ccc(F)cc1 [Compound 122] | 1000 to 10000 nM
CCOC(=O)N[C@@H](Cc1ccccc1)[C@H](O)CN(CC(C)C)S(=O)(=O)c1ccc(Cl)c(Cl)c1 [Compound 119] | 1000 to 10000 nM
CC(C)CN(C[C@@H](O)[C@H](Cc1ccccc1)NC(=O)O[C@H]1CCOC1)S(=O)(=O)c1ccoc1 [Compound 113] | 101 to 1000 nM
O=C(N[C@@H](Cc1ccccc1)[C@H](O)CN(CC1CCCC1)S(=O)(=O)c1ccc([N+](=O)[O-])cc1)O[C@H]1CCOC1 [Compound 170, N-Cyclopentylmethyl-N-((2 syn,3S)-2-hydroxy-4-phenyl-3-((S)-tetrahydrofuran-3-yloxycarbonylamino)-butyl)-4-nitro-benezensulfonamide] | 101 to 1000 nM
NC(=O)C[C@H](NC(=O)c1ccc2ccccc2n1)C(=O)N[C@@H](Cc1ccccc1)[C@H](O)CN(Cc1ccccc1)S(=O)(=O)c1ccc(-c2ccon2)s1 [Compound 6, (S)-N-1-(1-Benzyl-3-(benzyl-(5-isoxazol-3-yl-thiophene-2-sulfonyl)-amino)-(1S,2 syn)-1-benzyl-2-hydroxy-propyl)-2-((quinoline-2-carbonyl)-amino)-succinamide] | 101 to 1000 nM
CC(=O)Nc1ccc(S(=O)(=O)N(CC(C)C)C[C@@H](O)[C@H](Cc2ccccc2)NC(=O)[C@H](CC(N)=O)NC(=O)c2ccc3ccccc3n2)cc1F [Compound 15, (S)-N-1-(3-((4-Acetylamino-3-fluoro-benzenesulfonyl)-isobutyl-amino)-(1S,2 syn)-1-benzyl-2-hydroxy-propyl)-2-((quinoline-2-carbonyl)-amino)-succinamide] | < 100 nM
CC(C)CN(C[C@@H](O)[C@H](Cc1ccccc1)NC(=O)O[C@H]1CCOC1)S(=O)(=O)c1ccc(F)cc1 [Compound 35, 4-Fluoro-N-((2 syn,3S)-2-hydroxy-4-phenyl-3-((S)-tetrahydrofuran-3-yloxycarbonylamino)-butyl)-N-isobutyl-benzenesulfonamide] | 101 to 1000 nM
CC(C)CN(C[C@@H](O)[C@H](Cc1ccccc1)NC(=O)OCc1ccccc1)S(=O)(=O)c1ccc(N)c([N+](=O)[O-])c1 [Compound 63] | 1000 to 10000 nM
CC(C)CN(C[C@@H](O)[C@H](Cc1ccccc1)NC(=O)O[C@H]1CCOC1)S(=O)(=O)c1cccnc1 [Compound 144, Pyridine-3-sulfonic acid ((2 syn,3S)-2-hydroxy-4-phenyl-3-((S)-tetrahydrofuran-3-yloxycarbonylamino)-butyl)-isobutyl-amide, trifluoroacetic acid salt] | 101 to 1000 nM
C=C(C)COC(=O)N[C@@H](Cc1ccccc1)[C@H](O)CN(CC(C)C)S(=O)(=O)c1ccc(F)cc1 [Compound 107] | 1000 to 10000 nM
CC(=O)Nc1ccc(S(=O)(=O)N(CC(C)C)C[C@@H](O)[C@H](Cc2ccccc2)NC(=O)OCc2ccccc2)cc1 [Compound 61] | 1000 to 10000 nM
C=C(COC)COC(=O)N[C@@H](Cc1ccccc1)[C@H](O)CN(CC1CCCC1)S(=O)(=O)c1ccc(OC)cc1 [Compound 162] | 1000 to 10000 nM
CC(C)CN(C[C@@H](O)[C@H](Cc1ccccc1)NC(=O)O[C@H]1CCOC1)S(=O)(=O)c1ccc(Cl)c(Cl)c1 [Compound 37, 3,4-Dichloro-N-((2 syn,3S)-2-hydroxy-4-phenyl-3-((S)-tetrahydrofuran-3-yloxycarbonylamino)-butyl)-N-isobutyl-benzenesulfonamide] | 101 to 1000 nM
CC(=O)Nc1cc(S(=O)(=O)N(CC(C)C)C[C@@H](O)[C@H](Cc2ccccc2)NC(=O)OC(C)(C)C)ccc1F [Compound 54] | 1000 to 10000 nM
CC(=O)Nc1ccc(S(=O)(=O)N(CC(C)C)C[C@@H](O)[C@H](Cc2ccccc2)NC(=O)[C@@H](NC(=O)OCc2ccccn2)C(C)C)cc1 [Compound 22] | 101 to 1000 nM
NC(=O)C[C@H](NC(=O)c1ccc2ccccc2n1)C(=O)N[C@@H](Cc1ccccc1)[C@H](O)CN(Cc1ccccc1)S(=O)(=O)c1cccc(S(N)(=O)=O)c1 [Compound 10, N-1-(1-(S)-Benzyl-3-(benzyl-(3-sulfamoyl-benzenesulfonyl)-amino)-2-(syn)-hydroxy-propyl)-2-((quinoline-2-carbonyl)-amino)-succinamide] | 101 to 1000 nM
CC(=O)Nc1cccc(S(=O)(=O)N(CC(C)C)C[C@@H](O)[C@H](Cc2ccccc2)NC(=O)[C@H](CC(N)=O)NC(=O)c2ccc3ccccc3n2)c1 [Compound 19, (S)-N-1-(3-((3-Acetylamino-benzenesulfonyl)-isobutyl-amino)-(1S,2 syn)-1-benzyl-2-hydroxy-propyl)-2-((quinoline-2-carbonyl)-amino)-succinamide] | 101 to 1000 nM
CC(C)CN(C[C@@H](O)[C@H](Cc1ccccc1)NC(=O)O[C@H]1CCOC1)S(=O)(=O)c1cccc2nonc12 [Compound 60] | 1000 to 10000 nM
CC(=O)Nc1ccc(S(=O)(=O)N(CC(C)C)C[C@@H](O)[C@H](Cc2ccccc2)NC(=O)[C@H](CC(N)=O)NC(=O)c2ccc3ccccc3n2)cc1 [Compound 17, (S)-N-1-(1-(S)-Benzyl-3-((4-acetylamino-benzenesulfonyl)-isobutyl-amino)-2-(syn)-hydroxy-propyl)-2-((quinoline-2-carbonyl)-amino)-succinamide] | 101 to 1000 nM
CC(=O)Nc1ccc(S(=O)(=O)N(CC(C)C)C[C@@H](O)[C@H](Cc2ccccc2)NC(=O)OCc2cccnc2)cc1 [Compound 44, N-(4-(((2 syn,3S)-2-Hydroxy-4-phenyl-3-(pyridin-3-yl-methoxycarbonylamino)-butyl)-isobutyl-sulfamoyl)-phenyl)-acetamide] | 101 to 1000 nM
